We go through one compound from article PMC8387526, “Small peptide-based GLP-1R ligands: an approach to reduce the kidney uptake of radiolabeled GLP-1R-targeting agents?” (EJNMMI Radiopharmacy and Chemistry, 2021).

Experiment [1] deals with T1, human GLP-1 receptor (Homo sapiens, UniProt P43220). More on the design: Dr. Timothy Kieffer (University of British Columbia); method as in Mapelli et al., 2009; Haque et al., 2010a. Particulars: CHO cells stably overexpressing the human GLP-1 receptor; ref Mapelli et al., 2009; Haque et al., 2010a; read-out: EC50 (cAMP production); cited from earlier work.
T1 sequence (P43220 24-463): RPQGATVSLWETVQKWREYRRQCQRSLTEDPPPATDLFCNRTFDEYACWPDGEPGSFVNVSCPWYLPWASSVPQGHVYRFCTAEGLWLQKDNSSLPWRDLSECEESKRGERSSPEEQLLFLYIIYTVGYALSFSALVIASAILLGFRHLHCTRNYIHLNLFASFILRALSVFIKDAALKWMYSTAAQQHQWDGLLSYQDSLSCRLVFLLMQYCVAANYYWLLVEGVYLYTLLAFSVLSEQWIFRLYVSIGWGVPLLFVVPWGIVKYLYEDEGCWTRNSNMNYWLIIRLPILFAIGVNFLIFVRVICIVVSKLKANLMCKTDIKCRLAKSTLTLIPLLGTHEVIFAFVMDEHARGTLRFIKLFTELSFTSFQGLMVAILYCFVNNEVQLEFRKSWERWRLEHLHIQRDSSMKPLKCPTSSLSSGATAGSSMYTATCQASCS
Experiment [2] deals with T1, human GLP-1 receptor. The experiment in a line: Competitive binding (IC50) on HEK293-hGLP-1R cells with radioligand [Nle^14, [^125I]Tyr(3-I)^40]exendin-4. Conditions: w/ BSA (1% BSA); HEK293-hGLP-1R cells, 4 °C, 2 h, 0.41 nM radioligand; read-out: IC50 ± SD. More on the design: Dr. Timothy Kieffer (University of British Columbia); host or cells: HEK293. Here is the method: Dr. Timothy Kieffer (University of British Columbia, Vancouver, Canada). Cells were cultivated in high glucose DMEM (25.0 mM D-glucose, 3.97 mM GlutaMAX; REF-number: 61965–026; Fisher Scientific GmbH, Schwerte, Germany) supplemented with 10% fetal bovine serum and 1 mM sodium pyruvate. Medium for stably transfected HEK293-hGLP-1R cells was constantly supplemented with 1 mg/mL Geneticin (G-418 Biochrom, Merck KgaA, Darmstadt, Germany) as selection antibiotic. The cell line was kept at 37 °C in a humidified 5% CO2 atmosphere. One day (24 ± 2 h) prior to all in vitro experiments, the cultivated HEK293-h-GLP-1R cells were harvested using a mixture of trypsin/ethylenediaminetetraacetic acid (0.05%/0.02%) in phosphate-buffered saline (PBS) (Gibco, Germany) and centrifuged at 1300 rpm (ca. 190×g) for 3 min at room temperature (Heraeus Megafuge 16, Thermo Fisher, Germany). After centrifugation, the supernatant was disposed and the cell pellet was resuspended in culture medium. Cells were counted with a Neubauer hemocytometer (Paul Marienfeld GmbH & Co. KG, Lauda-Königshofen, Germany) and seeded in 24-well plates. IC50 values were determined by transferring 1.50 × 10^5 cells/mL per well into 24-well plates.
Detailed information on affinity experiments is provided in the SI. In brief, competitive binding studies were determined on HEK293-hGLP-1R cells (1.50 × 10^5 cells in 1 mL/well) after incubation at 4 °C for 2 hours, using [^125I]Tyr(3-I)^40–3 (0.41 nM/well) as reference radioligand (n = 3).
Dr. Timothy J. Kieffer (University of British Columbia, Vancouver, Canada). Cells were cultivated in high glucose DMEM (25.0 mM D-glucose, 3.97 mM GlutaMAX; REF-number: 61965-026; Fisher Scientific GmbH, Schwerte, Germany) supplemented with 10% fetal bovine serum and 1 mM sodium pyruvate. Medium for stably transfected HEK293-hGLP-1R cells was constantly supplemented with 1 mg/mL Geneticin (G-418 Biochrom, Merck KgaA, Darmstadt, Germany) as selection antibiotic. The cell line was kept at 37 °C in a humidified 5% CO2 atmosphere. One day (24 ± 2 h) prior to all in vitro experiments, the cultivated cells were harvested using a mixture of trypsin/ethylenediaminetetraacetic acid (0.05%/0.02%) in phosphate-buffered saline (PBS) (Merck KgaA, Darmstadt, Germany) and centrifuged at 1300 rpm (ca. 190 × g) for 3 min at room temperature (Heraeus Megafuge 16, Thermo Fisher Scientific, Darmstadt, Germany). After centrifugation, the supernatant was disposed and the cell pellet was resuspended in culture medium. Cells were counted with a Neubauer hemocytometer (Paul Marienfeld GmbH & Co. KG, Lauda-Königshofen, Germany) and seeded in 24-well plates (Greiner Bio-One, Kremsmünster, Austria). IC50 values were determined by transferring 1.50 × 10^5 cells/mL per well into 24-well plates (Greiner Bio-One, Kremsmünster, Austria).
The culture medium was removed and the cells were washed with 500 µL of Hank’s balanced salt solution (HBSS) (Merck KGaA, Darmstadt, Germany), containing 1% bovine serum albumin (BSA) (Merck KGaA, Darmstadt, Germany). Afterwards, 200 µL of HBSS (1% BSA) were added to each well and equilibrated on ice (4 °C) for 15 min. 25 µL/well of either HBSS (1% BSA) (= control) or of solutions, containing the respective unlabeled ligand in increasing concentrations (10^-10 - 10^-4 M in HBSS) were added, followed by the addition of 25 µL of [Nle^14, [^125I]Tyr(3-I)^40]exendin-4 in HBSS (1% BSA) to each well. Experiments were carried out in triplicates for each concentration. The final concentrations of unlabeled ligand ranged from 10^-11 - 10^-5 M and the final radioligand concentration was 0.41 nM in all binding assays. The cells were incubated for two hours at 4 °C. Incubation was terminated by removal of the incubation medium. The cells were washed with 250 µL of HBSS (1% BSA) and the wash medium was combined with the respective supernatant. This fraction represents the amount of free radioligand. The cells were lysed by addition of 250 µL of 1 M aqueous NaOH. […]

Square brackets hold non-standard residues; d marks the D form. Peptide text beside a SMILES is read from it. Bip(2'-Et-4'-OMe) = CCc1cc(OC)ccc1-c1ccc(C[C@H](N)C(=O)O)cc1; αMePhe(2-F) = C[C@](N)(Cc1ccccc1F)C(=O)O; hPhe = N[C@@H](CCc1ccccc1)C(=O)O; Aib = CC(C)(N)C(=O)O

In the case of `CCc1cc(OC)ccc1-c1ccc(C[C@H](NC(=O)[C@H](CC(=O)O)NC(=O)[C@H](CO)NC(=O)[C@@H](NC(=O)[C@](C)(Cc2ccccc2F)NC(=O)[C@@H](NC(=O)CNC(=O)[C@H](CCC(=O)O)NC(=O)C(C)(C)NC(=O)[C@@H](N)Cc2c[nH]cn2)[C@@H](C)O)[C@@H](C)O)C(=O)N[C@@H](CCc2ccccc2)C(N)=O)cc1` [Peptide 1, H-L-His-Aib-L-Glu-Gly-L-Thr-L-(α-Me)Phe(2-F)-L-Thr-L-Ser-L-Asp-L-(2’-Et, 4’-OMe)BIP-L-homoPhe-NH2, reference compound] (H-H[Aib]EGT[αMePhe(2-F)]TSD[Bip(2'-Et-4'-OMe)][hPhe]-NH2), on human GLP-1 receptor [1], the concentration for a half-maximal effect (EC50) is 0.031 nM. Besides, on human GLP-1 receptor [2], the IC50 amounted to 669 ± 242 nM.
